Key:
[1] = Stability test of crystal A at room temperature, kept away from light; assay type: physicochemical
Experimental: (§1) The stability of the crystal according to the present application may be detected by placing the crystal under a condition with a high temperature, a high humidity, or a lighting condition. The high temperature condition may be 40° C. to 60° C., the high humidity condition may be a relative humidity of 75% to 92.5% RH, and the lighting condition may be 5000 Lux. The crystal stability may be evaluated by investigating several parameters, such as the content of the crystal, the total content of impurities, or the water content, of a sample, and comprehensively evaluating these parameters according to the properties of the product.
The crystal A obtained by Method 1 of Example 3 was kept away from light at room temperature, and sampled for detection in months 1.5, 2, 5, and 6, respectively.

[2] = Stability test of crystal B under high temperature, high humidity or illumination; assay type: physicochemical
Experimental: as §1
The crystal B obtained by Method 5 of Example 4 was kept respectively in an environment at a high temperature of 60° C., a high humidity of 75% RH, a high humidity of 92.5% RH, or an illumination intensity of 5000 Lux, and sampled for detection on days 5, 10, and 30, respectively.

C=CC(=O)Nc1cc(Nc2nccc(-n3c(=O)n(C)c4ccccc43)n2)c(OC)cc1N(C)CCN(C)C [crystal A]
Characters ([1]; Initial Result): off-white | Content (%) ([1]; Initial Result): 100.3% | Total Impurity (%) ([1]; Initial Result): 1.11% | Characters ([1]; Month 1.5): off-white | Content (%) ([1]; Month 1.5): 100.5% | Total Impurity (%) ([1]; Month 1.5): 1.52% | Characters ([1]; Month 2): off-white | Total Impurity (%) ([1]; Month 2): 1.23% | Characters ([1]; Month 5): off-white | Content (%) ([1]; Month 5): 100% | Total Impurity (%) ([1]; Month 5): 1.5% | Characters ([1]; Month 6): off-white | Content (%) ([1]; Month 6): 99.8% | Total Impurity (%) ([1]; Month 6): 1.37%

C=CC(=O)Nc1cc(Nc2nccc(-n3c(=O)n(C)c4ccccc43)n2)c(OC)cc1N(C)CCN(C)C [crystal B]
Characters ([2]; Day 0): white | Content (%) ([2]; Day 0): 99.3% | Total Impurity (%) ([2]; Day 0): 0.12% | Characters ([2]; High Humidity 75% RH, Day 5): white | Content (%) ([2]; High Humidity 75% RH, Day 5): 99.3% | Characters ([2]; High Humidity 75% RH, Day 10): white | Content (%) ([2]; High Humidity 75% RH, Day 10): 103.6% | Total Impurity (%) ([2]; High Humidity 75% RH, Day 10): 0.07% | Characters ([2]; High Humidity 75% RH, Day 30): off-white | Content (%) ([2]; High Humidity 75% RH, Day 30): 106.4% | Total Impurity (%) ([2]; High Humidity 75% RH, Day 30): 0.06% | Characters ([2]; High Humidity 92.5% RH, Day 5): white | Content (%) ([2]; High Humidity 92.5% RH, Day 5): 98.4% | Characters ([2]; High Humidity 92.5% RH, Day 10): white | Content (%) ([2]; High Humidity 92.5% RH, Day 10): 105.2% | Total Impurity (%) ([2]; High Humidity 92.5% RH, Day 10): 0.06% | Characters ([2]; High Humidity 92.5% RH, Day 30): off-white | Content (%) ([2]; High Humidity 92.5% RH, Day 30): 103.9% | Total Impurity (%) ([2]; High Humidity 92.5% RH, Day 30): 0.07% | Characters ([2]; High Temp. 60° C., Day 5): white | Content (%) ([2]; High Temp. 60° C., Day 5): 100.5% | Characters ([2]; High Temp. 60° C., Day 10): white | Content (%) ([2]; High Temp. 60° C., Day 10): 104.2% | Total Impurity (%) ([2]; High Temp. 60° C., Day 10): 0.09% | Characters ([2]; High Temp. 60° C., Day 30): off-white | Content (%) ([2]; High Temp. 60° C., Day 30): 107.9% | Total Impurity (%) ([2]; High Temp. 60° C., Day 30): 0.19% | Characters ([2]; Illumination 5000 Lux, Day 5): white | Content (%) ([2]; Illumination 5000 Lux, Day 5): 99.4% | Total Impurity (%) ([2]; Illumination 5000 Lux, Day 5): 0.06% | Characters ([2]; Illumination 5000 Lux, Day 10): white | Content (%) ([2]; Illumination 5000 Lux, Day 10): 106.9% | Total Impurity (%) ([2]; Illumination 5000 Lux, Day 10): 0.14% | Characters ([2]; Illumination 5000 Lux, Day 30): off-white | Content (%) ([2]; Illumination 5000 Lux, Day 30): 107.9% | Total Impurity (%) ([2]; Illumination 5000 Lux, Day 30): 0.37%

Source: US20200361908A1, “CRYSTALS OF ANILINE PYRIMIDINE COMPOUND SERVING AS EGFR INHIBITOR” (CHIA TAI TIANQING PHARMACEUTICAL GROUP CO., LTD., priority 2016, published 2020)
